The source of these data is patent US5444043A, “Cyclic heptapeptide anti-inflammatory agent” (The Regents of the University of California, priority 1994, dated 1995).

Common to all, as to format: in vivo
Test [1] concerns phorbol-induced inflammation (edema) of mouse ears. The experiment in a line: Inhibition of mouse ear edema, time of addition study. Conditions: 50 ug/ear. On the procedure:
Cyclomarin-A was tested by measuring inhibition of phorbol-induced inflammation (edema) of mouse ears. […] […] PMA alone (2 microgram per ear) or in combination with varying amounts of cyclomarin-A was applied to the left ears of (5 mice per treatment group). Acetone was applied to all right ears. After a 3-hour and 20-minute incubation at 23° C., the mice were sacrificed, the ears removed and bores taken and weighed. Edema was measured by subtracting the weight of the right ear (acetone control) from the weight of the left ear (treated). The results were recorded as a percent decrease (inhibition) or percent increase (potentiation) in edema relative to the PMA control group edema.

For test [2] the test system is unchanged. Briefly: Inhibition of mouse ear edema, systemic study (IP). Conditions: 1 hour prior.
For test [3] the test system is unchanged. Briefly: Inhibition of phorbol (PMA)-induced mouse ear edema, standard protocol (topical). Conditions: for Inhibition of Mouse Ear Edema: 3 h 20 min, relative to PMA control. On the procedure: Cyclomarin-A was tested by measuring inhibition of phorbol-induced inflammation (edema) of mouse ears. […] The compound is topically applied in acetone to the inside pinnae of the ears of mice in a solution containing the edema-causing irritant, i.e. phorbol 12-myristate 13-acetate (PMA). PMA alone (2 microgram per ear) or in combination with varying amounts of cyclomarin-A was applied to the left ears of (5 mice per treatment group). Acetone was applied to all right ears. After a 3-hour and 20-minute incubation at 23° C., the mice were sacrificed, the ears removed and bores taken and weighed. Edema was measured by subtracting the weight of the right ear (acetone control) from the weight of the left ear (treated). The results were recorded as a percent decrease (inhibition) or percent increase (potentiation) in edema relative to the PMA control group edema.

On to cyclomarin-A, for which the “Inhibition of Mouse Ear Edema” value in test [1] (time of addition 0 mins) came to 82.8%; in test [1] (time of addition +30 mins), 50.9%; in test [1] (time of addition +60 mins), 12.0%; in test [1] (time of addition -30 mins) it was 79.4%; in test [1] (time of addition -60 mins), 51.8%; in test [2] (25 mg/kg IP), 28.0%. The “Inhibition of Mouse Ear Edema” value came out at 55.0% in test [2] (50 mg/kg IP); 48.0% in test [2] (100 mg/kg IP); 3.0% in test [3] (5 ug/ear topical with PMA 2 microgram per ear); 39.0% in test [3] (10 ug/ear topical with PMA 2 microgram per ear); 57.0% in test [3] (25 ug/ear topical with PMA 2 microgram per ear); 88.0% in test [3] (50 ug/ear topical with PMA 2 microgram per ear). Besides, the “Inhibition of Mouse Ear Edema” value in test [3] (100 ug/ear topical with PMA 2 microgram per ear) came out at 96.2%. Also, the topical anti-inflammatory activity entry in test [3] (topical, statement in words) is on record as “exhibit topical anti-inflammatory activity”.
